According to US5707798A, “Identification of ligands by selective amplification of cells transfected with receptors” (priority 1994, dated 1998):

Assays:
[1] = test system: Muscarinic acetylcholine receptors that stimulate phospholipase c (m1, m3, m5); settings: cited from earlier work
EP3 prostanoid receptor = molecular target: T1, EP3 prostanoid receptor (Homo sapiens, UniProt P43115); type: cell-based; settings: EP3, Table 2; read-out: Ligand EC50
T1 construct: expressed in transfected cells; host or cells: NIH 3T3 (mouse fibroblasts, ATCC CRL 1658)
T1 sequence (P43115 1-390): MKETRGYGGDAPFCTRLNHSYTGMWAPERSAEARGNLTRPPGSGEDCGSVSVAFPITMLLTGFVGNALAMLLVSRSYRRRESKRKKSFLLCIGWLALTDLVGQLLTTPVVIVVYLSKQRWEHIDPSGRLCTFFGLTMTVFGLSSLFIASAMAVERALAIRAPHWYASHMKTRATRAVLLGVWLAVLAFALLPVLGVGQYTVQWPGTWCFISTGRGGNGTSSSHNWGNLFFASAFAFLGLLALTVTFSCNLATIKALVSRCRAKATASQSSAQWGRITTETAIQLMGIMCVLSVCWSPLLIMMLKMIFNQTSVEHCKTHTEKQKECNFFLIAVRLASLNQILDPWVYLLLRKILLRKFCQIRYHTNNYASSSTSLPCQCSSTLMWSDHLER

NIH 3T3 cells = assay: Amplification response in the absence of the indicated target receptor; type: cell-based, mouse; settings: absence of the ligand's target receptor
Procedure: FIG. 16 illustrates the maximal ligand-induced responses of the indicated receptors, as assayed using cotransfected cultures using a Multiple Receptor Format similar to that described in FIG. 11. […] Cells were incubated in wells of a 96 well plate for 4 days with each ligand. Maximal responses were calculated by fitting the data to a model of a single mass-action site.

m2 muscarinic receptor [2] = molecular target: T2, m2 muscarinic receptor (Homo sapiens, UniProt P08172); assay: β-galactosidase levels, m2 receptor in the absence of expressed G-protein; type: cell-based
T2 construct: expressed in transfected cells; host or cells: NIH 3T3 (mouse fibroblasts)
T2 sequence (P08172 1-466): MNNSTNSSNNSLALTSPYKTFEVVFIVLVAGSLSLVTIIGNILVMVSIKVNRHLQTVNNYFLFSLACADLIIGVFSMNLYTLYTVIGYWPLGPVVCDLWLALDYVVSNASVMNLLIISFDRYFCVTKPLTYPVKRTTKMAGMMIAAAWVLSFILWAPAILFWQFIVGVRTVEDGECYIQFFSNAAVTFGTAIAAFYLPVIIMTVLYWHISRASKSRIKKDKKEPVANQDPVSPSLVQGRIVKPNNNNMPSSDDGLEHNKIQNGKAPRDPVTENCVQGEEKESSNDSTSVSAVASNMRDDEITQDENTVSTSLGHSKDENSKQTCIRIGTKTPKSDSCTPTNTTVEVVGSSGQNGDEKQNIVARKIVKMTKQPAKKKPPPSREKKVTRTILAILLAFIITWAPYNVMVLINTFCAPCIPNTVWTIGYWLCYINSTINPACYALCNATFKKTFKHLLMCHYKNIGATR

m5 muscarinic receptor [3] = molecular target: T3, m5 muscarinic receptor (Homo sapiens, UniProt P08912); type: cell-based
T3 construct: expressed in transfected cells; host or cells: NIH 3T3 (mouse fibroblasts)
T3 sequence (P08912 1-532): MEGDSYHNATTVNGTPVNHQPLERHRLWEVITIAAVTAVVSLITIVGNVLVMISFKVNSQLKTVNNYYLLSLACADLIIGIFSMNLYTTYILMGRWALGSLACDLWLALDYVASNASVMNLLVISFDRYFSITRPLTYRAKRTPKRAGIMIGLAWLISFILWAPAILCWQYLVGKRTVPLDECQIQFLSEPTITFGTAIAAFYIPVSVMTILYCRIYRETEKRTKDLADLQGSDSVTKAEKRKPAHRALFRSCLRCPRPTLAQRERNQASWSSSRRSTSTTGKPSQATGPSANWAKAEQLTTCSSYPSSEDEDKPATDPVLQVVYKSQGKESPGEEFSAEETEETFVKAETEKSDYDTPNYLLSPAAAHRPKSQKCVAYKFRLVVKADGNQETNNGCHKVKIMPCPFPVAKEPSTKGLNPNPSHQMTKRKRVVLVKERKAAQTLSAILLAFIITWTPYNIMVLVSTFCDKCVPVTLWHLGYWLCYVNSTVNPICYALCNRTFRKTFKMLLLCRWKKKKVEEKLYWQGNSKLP

m5 muscarinic receptor [4] = molecular target: T3, m5 muscarinic receptor; assay: Focus induction in NIH 3T3 cells transfected with m5 DNA; type: cell-based; settings: low concentrations
m2 muscarinic receptor [5] = molecular target: T2, m2 muscarinic receptor; assay: cell-based; type: cell-based
m2 muscarinic receptor [6] = molecular target: T2, m2 muscarinic receptor; assay: cell-based
m5 muscarinic receptor [7] = molecular target: T3, m5 muscarinic receptor; type: cell-based; remark: listed apart in the source
m1 muscarinic receptor = molecular target: T4, m1 muscarinic receptor (Homo sapiens, UniProt P11229); assay: cell-based
T4 sequence (P11229 1-460): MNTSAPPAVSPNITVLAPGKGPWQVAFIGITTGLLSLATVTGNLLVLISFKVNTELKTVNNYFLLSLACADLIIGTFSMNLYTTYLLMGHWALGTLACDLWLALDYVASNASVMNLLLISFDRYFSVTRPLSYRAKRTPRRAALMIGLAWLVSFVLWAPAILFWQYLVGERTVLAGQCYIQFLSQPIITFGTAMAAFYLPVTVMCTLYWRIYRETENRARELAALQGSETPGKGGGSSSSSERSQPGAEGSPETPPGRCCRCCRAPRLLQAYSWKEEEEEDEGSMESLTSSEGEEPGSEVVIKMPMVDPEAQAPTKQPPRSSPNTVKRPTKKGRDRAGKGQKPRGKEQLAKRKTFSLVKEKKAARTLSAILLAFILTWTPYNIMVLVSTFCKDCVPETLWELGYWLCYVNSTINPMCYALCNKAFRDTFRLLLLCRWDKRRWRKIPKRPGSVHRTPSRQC

m4 muscarinic receptor = molecular target: T5, m4 muscarinic receptor (Homo sapiens, UniProt P08173); assay: cell-based
T5 sequence (P08173 1-479): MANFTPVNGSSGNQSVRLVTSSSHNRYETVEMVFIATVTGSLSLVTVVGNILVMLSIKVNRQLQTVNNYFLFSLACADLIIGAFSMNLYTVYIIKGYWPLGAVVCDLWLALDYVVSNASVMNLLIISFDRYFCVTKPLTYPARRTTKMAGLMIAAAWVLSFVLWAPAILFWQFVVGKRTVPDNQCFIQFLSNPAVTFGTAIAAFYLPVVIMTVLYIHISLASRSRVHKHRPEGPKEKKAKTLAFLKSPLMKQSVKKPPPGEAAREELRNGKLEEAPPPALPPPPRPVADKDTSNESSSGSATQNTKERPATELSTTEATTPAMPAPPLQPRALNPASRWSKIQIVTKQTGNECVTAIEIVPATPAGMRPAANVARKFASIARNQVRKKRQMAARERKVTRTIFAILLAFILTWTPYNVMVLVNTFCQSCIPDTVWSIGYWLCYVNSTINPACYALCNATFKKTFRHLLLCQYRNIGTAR

m3 muscarinic receptor = m3 muscarinic receptor (Homo sapiens, UniProt P20309); assay: cell-based
m3 muscarinic receptor, sequence (P20309 whole entry): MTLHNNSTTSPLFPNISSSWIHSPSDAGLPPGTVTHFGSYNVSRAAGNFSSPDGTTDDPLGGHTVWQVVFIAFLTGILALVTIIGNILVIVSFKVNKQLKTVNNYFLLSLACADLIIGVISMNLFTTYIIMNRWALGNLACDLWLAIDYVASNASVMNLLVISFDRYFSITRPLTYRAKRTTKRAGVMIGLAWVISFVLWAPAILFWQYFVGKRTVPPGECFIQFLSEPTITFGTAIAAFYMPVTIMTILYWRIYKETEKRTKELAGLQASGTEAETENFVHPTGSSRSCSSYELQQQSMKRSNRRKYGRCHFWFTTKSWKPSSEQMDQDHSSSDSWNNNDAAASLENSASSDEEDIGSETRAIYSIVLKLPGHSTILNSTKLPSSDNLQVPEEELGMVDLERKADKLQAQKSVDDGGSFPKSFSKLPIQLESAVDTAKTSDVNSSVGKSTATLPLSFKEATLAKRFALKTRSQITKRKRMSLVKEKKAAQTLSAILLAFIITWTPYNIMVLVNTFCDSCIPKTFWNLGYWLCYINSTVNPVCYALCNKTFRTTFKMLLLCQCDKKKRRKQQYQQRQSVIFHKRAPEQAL

[8] = test system: certain alpha adrenergic receptors; settings: cited from earlier work
[9] = molecular target: T6, alpha 2 C4 adrenergic receptor (Homo sapiens, UniProt P18825); type: cell-based; settings: α2-C4, Table 3; relative to other ligands at the receptor
T6 construct: expressed in transfected cells; host or cells: NIH 3T3 (mouse fibroblasts)
T6 sequence (P18825 1-462): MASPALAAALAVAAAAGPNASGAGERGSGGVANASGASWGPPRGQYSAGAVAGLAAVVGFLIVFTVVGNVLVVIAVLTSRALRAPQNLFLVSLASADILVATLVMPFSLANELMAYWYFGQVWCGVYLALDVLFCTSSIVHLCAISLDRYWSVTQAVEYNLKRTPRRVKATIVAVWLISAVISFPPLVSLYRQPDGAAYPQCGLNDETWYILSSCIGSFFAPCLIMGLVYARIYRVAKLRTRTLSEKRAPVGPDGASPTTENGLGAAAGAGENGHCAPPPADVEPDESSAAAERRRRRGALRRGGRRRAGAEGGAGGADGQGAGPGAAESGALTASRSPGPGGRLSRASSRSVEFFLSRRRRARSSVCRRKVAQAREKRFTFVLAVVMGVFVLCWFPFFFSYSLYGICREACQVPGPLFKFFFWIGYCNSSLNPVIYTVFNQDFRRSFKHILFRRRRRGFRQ

trk A receptor = settings: Table 2
trk C receptor = molecular target: trk C receptor; design: Rmax: key to the marks not given beside the values

In the case of `CN1[C@@H]2CC[C@H]1C[C@@H](OC(=O)C(CO)c1ccccc1)C2` (stereo partly shown) [atropine], the “block of agonist-stimulated phospholipase c, mitogenesis and foci” value [1] is listed as “blocked”.

In the case of `O=C(O)CCCCCC[C@H]1C(=O)CC[C@@H]1/C=C/[C@@H](O)COc1ccccc1` [MB28767], the EC50 (EP3 prostanoid receptor) is reported as 270 ± 190 nM.

In the case of `C[N+](C)(C)CCOC(N)=O` [carbachol], the induction of responses (NIH 3T3 cells) is reported as “unable to induce responses”, the “effect on β-galactosidase levels” value (m2 muscarinic receptor [2]) is reported as “no effect on β-galactosidase levels” and the “time to plateau of β-galactosidase induction” value (m5 muscarinic receptor [3]; m5) is reported as “about five”. For the same compound, the “induction of β-galactosidase levels” value (m5 muscarinic receptor [3]; m5, time-course) was “significantly induce β-galactosidase levels”, the focus response (m5 muscarinic receptor [4]) was “robust ligand-dependent responses” and the “time to plateau of β-galactosidase induction” value (m2 muscarinic receptor [5]; m2/q-i5) was “about five”. The “induction of β-galactosidase levels” value (m2 muscarinic receptor [5]; m2/q-i5, time-course) was “significantly induce β-galactosidase levels”.

With `O[Si](CCCN1CCCCC1)(c1ccc(F)cc1)C1CCCCC1` (stereo not shown) [p-F-HHSiD] the Ki (m2 muscarinic receptor [6]) was 501 nM, the Ki (m5 muscarinic receptor [7]) was 79.4 nM and the Ki (m1 muscarinic receptor) was 251 nM. The Ki (m4 muscarinic receptor) was 50.1 nM and the Ki (m3 muscarinic receptor) was 31.6 nM.

In the case of `NC[C@H](O)c1ccc(O)c(O)c1` [Norepinephrine], the growth stimulation [8] is given as “stimulates” and the “Max Response” value [9] is given as “+”.

For NT3: related neutrotrophic factor NT3, the “Ligand EC50” value (trk A receptor) was greater than 1 µg/mL, the “Ligand EC50” value (trk C receptor; Table 2) was 0.0024 ± 0.0011 µg/mL and the Rmax (trk C receptor; relative to other clones) was “++++”.
